The results in this text go back to patent US10221139B2, “Inhibitors of histone demethylases” (Gilead Sciences, Inc., priority 2012, dated 2019).

Common to all, as to type: biochemical
The target of one test is T1, GASC1 (KDM4C, JMJD2C) (Homo sapiens, UniProt Q9H3R0).
T1 construct: 1-349; host or cells: E. coli
T1 sequence (Q9H3R0 1-349): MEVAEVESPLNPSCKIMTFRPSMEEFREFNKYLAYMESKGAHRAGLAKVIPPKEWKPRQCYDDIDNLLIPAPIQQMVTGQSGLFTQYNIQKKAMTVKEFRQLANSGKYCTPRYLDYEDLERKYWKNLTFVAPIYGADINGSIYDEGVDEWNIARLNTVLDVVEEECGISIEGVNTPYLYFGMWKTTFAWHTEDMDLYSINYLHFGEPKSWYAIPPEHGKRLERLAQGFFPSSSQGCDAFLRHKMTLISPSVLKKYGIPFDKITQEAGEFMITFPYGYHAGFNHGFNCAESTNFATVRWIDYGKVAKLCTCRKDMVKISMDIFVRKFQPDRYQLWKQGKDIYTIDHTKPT
In words: Histone lysine demethylase AlphaLISA assay, GASC1. The note with it: substrate BK9M3. The method, then: (§1) Example 2: Histone Lysine Demethylase AlphaLISA Assays for IC50 Value Determination
(§2) Assays are performed analogously to the protocol described by Perkin Elmer (Roy et al. Perkin Elmer Technical Note: AlphaLISA #12, April 2011).
(§3) Enzymes are dissolved in enzyme buffer and incubated for 10 min before 5 μL is added to 5 μL 3% DMSO solutions of compounds in enzyme buffer. Incubated for another 10 minutes, before 5 μL substrate solution is added and the reaction mixture is incubated at room temperature for the given period. 10 μL acceptor beads, suspended at given dilutions in Epigenetic Buffer (Perkin Elmer AL008) from stock, are added and the suspension is incubated 60 minutes in the dark at room temperature, before 10 μL suspension (at the given dilutions in Epigenetic Buffer) of streptavidin donor beads (Perkin Elmer 6760002) in Epigenetic Buffer is added. After incubation at room temperature in the dark the plates are read. Reaction conditions are seen in Table 2b.

Another test concerns the target T2, UTX (KDM6A) (Homo sapiens, UniProt O15550).
T2 construct: 919-1401; host or cells: E. coli
The experiment in a line: Histone lysine demethylase AlphaLISA assay, UTX. The settings on record: substrate BK27M3. As to the method: as §1, §2, §3
For orientation: Bead proximity is the source of the signal in Alpha formats.

The target in another test is T3, PLU1 (KDM5B) (Homo sapiens, UniProt Q9UGL1).
T3 construct: 1-809; host or cells: E. coli
T3 sequence (Q9UGL1 1-809): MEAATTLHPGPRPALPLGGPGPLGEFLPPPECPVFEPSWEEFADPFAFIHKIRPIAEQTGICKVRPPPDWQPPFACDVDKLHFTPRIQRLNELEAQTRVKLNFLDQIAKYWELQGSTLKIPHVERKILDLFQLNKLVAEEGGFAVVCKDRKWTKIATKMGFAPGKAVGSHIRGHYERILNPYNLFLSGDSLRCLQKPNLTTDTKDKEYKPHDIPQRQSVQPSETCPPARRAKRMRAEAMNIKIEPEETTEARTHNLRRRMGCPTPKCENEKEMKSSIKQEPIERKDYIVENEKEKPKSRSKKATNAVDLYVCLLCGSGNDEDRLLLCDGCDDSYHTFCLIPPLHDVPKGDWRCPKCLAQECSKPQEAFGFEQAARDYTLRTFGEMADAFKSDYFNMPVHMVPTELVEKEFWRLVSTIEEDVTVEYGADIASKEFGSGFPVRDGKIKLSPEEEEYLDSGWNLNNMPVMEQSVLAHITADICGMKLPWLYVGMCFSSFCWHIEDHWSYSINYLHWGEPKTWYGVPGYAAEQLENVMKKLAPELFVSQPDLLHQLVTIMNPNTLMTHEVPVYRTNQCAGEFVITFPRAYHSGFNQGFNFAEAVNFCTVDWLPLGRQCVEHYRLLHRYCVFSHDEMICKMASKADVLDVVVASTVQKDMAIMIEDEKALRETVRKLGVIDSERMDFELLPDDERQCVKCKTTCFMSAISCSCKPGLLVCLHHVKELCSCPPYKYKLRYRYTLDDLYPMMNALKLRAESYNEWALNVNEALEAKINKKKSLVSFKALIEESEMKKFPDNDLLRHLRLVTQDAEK
The experiment in a line: Histone lysine demethylase AlphaLISA assay, PLU1. The settings on record: substrate H3K4M3B. The method, then: as §1, §2, §3

T2 sequence (O15550 919-1401): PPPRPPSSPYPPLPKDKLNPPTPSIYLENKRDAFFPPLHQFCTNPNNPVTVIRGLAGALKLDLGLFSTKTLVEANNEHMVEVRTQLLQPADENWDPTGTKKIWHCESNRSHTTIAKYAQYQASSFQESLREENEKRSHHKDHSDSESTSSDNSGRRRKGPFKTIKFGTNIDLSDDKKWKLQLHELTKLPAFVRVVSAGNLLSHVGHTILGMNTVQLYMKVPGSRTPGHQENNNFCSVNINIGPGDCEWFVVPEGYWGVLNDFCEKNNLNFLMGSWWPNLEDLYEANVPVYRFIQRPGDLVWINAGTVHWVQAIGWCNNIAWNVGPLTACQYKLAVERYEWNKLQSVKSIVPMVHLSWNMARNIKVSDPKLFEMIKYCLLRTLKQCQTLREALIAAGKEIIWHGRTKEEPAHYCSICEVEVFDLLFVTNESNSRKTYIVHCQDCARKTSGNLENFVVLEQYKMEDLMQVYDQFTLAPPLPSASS

With “2-[({2-[(2S)-1-benzylpyrrolidin-2-yl]ethyl}amino)methyl]pyridine-4-carboxylic acid [#45]”, the IC50 was below 100 nM against GASC1 (KDM4C, JMJD2C); at least 1000 nM against UTX (KDM6A); below 100 nM against PLU1 (KDM5B).

In the case of “4-methoxyphenyl 2-({[4-(diethylamino)butyl]amino}methyl)pyridine-4-carboxylate [#51]”, the IC50 is 100 to 1000 nM at GASC1 (KDM4C, JMJD2C); at least 1000 nM against UTX (KDM6A); below 100 nM on PLU1 (KDM5B).

For the compound `O=C(O)c1ccnc(CNC[C@@H](O)CO)c1` [#3, 2-({[(2R)-2,3-dihydroxypropyl]amino}methyl)pyridine-4-carboxylic acid], the IC50 was 100 to 1000 nM against GASC1 (KDM4C, JMJD2C); at least 1000 nM against UTX (KDM6A); below 100 nM against PLU1 (KDM5B).

As to `O=C(O)c1ccnc(CNCC2CC2)c1` [#4, 2-{[(cyclopropylmethyl)amino]methyl}pyridine-4-carboxylic acid], the IC50 against GASC1 (KDM4C, JMJD2C) is 100 to 1000 nM; at UTX (KDM6A), at least 1000 nM; on PLU1 (KDM5B), below 100 nM.

Regarding `CN(C)CCN(C)Cc1cc(C(=O)O)ccn1` [#6, 2-({[2-(dimethylamino)ethyl](methyl)amino}methyl)pyridine-4-carboxylic acid], the results for the IC50 against UTX (KDM6A) and against PLU1 (KDM5B) were at least 1000 nM and 100 to 1000 nM, respectively.

As for `C#CCN(C)Cc1cc(C(=O)O)ccn1` [#7, 2-{[methyl(prop-2-yn-1-yl)amino]methyl}pyridine-4-carboxylic acid], the IC50 at GASC1 (KDM4C, JMJD2C) is 100 to 1000 nM; against UTX (KDM6A) it was at least 1000 nM; on PLU1 (KDM5B), 100 to 1000 nM.

For the compound `O=C(O)c1ccnc(CNCCF)c1` [#8, 2-{[(2-fluoroethyl)amino]methyl}pyridine-4-carboxylic acid], the IC50 on GASC1 (KDM4C, JMJD2C) was 100 to 1000 nM; at UTX (KDM6A), at least 1000 nM; at PLU1 (KDM5B) it was 100 to 1000 nM.

Take `O=C(O)c1ccnc(CNCc2ccco2)c1` [#9, 2-{[(furan-2-ylmethyl)amino]methyl}pyridine-4-carboxylic acid]: the IC50 on GASC1 (KDM4C, JMJD2C) is below 100 nM; on UTX (KDM6A) it was at least 1000 nM.

As for `O=C(O)c1ccnc(CNCc2ccc(-c3ccccc3)o2)c1` [#10, 2-({[(5-phenylfuran-2-yl)methyl]amino}methyl)pyridine-4-carboxylic acid], the IC50 is at least 1000 nM against GASC1 (KDM4C, JMJD2C); at least 1000 nM against UTX (KDM6A); 100 to 1000 nM on PLU1 (KDM5B).

As to `CSCCNCc1cc(C(=O)O)ccn1` [#12, 2-({[2-(methylsulfanyl)ethyl]amino}methyl)pyridine-4-carboxylic acid], the IC50 against GASC1 (KDM4C, JMJD2C) is below 100 nM; against UTX (KDM6A), at least 1000 nM; against PLU1 (KDM5B), below 100 nM.

On to `COCCN1CCN(C(=O)CNCc2cc(C(=O)O)ccn2)CC1` [#16, 2-[({2-[4-(2-methoxyethyl)piperazin-1-yl]-2-oxoethyl}amino)methyl]pyridine-4-carboxylic acid], for which the IC50 on GASC1 (KDM4C, JMJD2C) is below 100 nM; at UTX (KDM6A), at least 1000 nM; against PLU1 (KDM5B), below 100 nM.

For the compound `C=CCN(CC=C)C(=O)CNCc1cc(C(=O)O)ccn1` [#17, 2-[({[bis(prop-2-en-1-yl)carbamoyl]methyl}amino)methyl]pyridine-4-carboxylic acid], the IC50 is below 100 nM against GASC1 (KDM4C, JMJD2C); at least 1000 nM against UTX (KDM6A); below 100 nM against PLU1 (KDM5B).

With `COC(=O)c1ccnc(CNCCCN2CCCC2)c1` [#47, methyl 2-({[3-(pyrrolidin-1-yl)propyl]amino}methyl)pyridine-4-carboxylate], the half-inhibitory concentration (IC50) at GASC1 (KDM4C, JMJD2C) is at least 1000 nM; on PLU1 (KDM5B), 100 to 1000 nM.

With `CCN(CCN(C)C)C(=O)CNCc1cc(C(=O)Oc2ccc(C(C)(C)C)cc2)ccn1` [#61, 4-tert-butylphenyl 2-{[({[2-(dimethylamino)ethyl](ethyl)carbamoyl}methyl)amino]methyl}pyridine-4-carboxylate], the IC50 against GASC1 (KDM4C, JMJD2C) was below 100 nM; on PLU1 (KDM5B), below 100 nM.

Turning to `CCN(CCN(C)C)C(=O)CNCc1cc(C(=O)OC(C)CC(C)=O)ccn1` (stereo not drawn) [#62, 4-oxopentan-2-yl 2-{[({[2-(dimethylamino)ethyl](ethyl)carbamoyl}methyl)amino]methyl}pyridine-4-carboxylate], the IC50 against GASC1 (KDM4C, JMJD2C) is below 100 nM; on PLU1 (KDM5B), below 100 nM.

With `CCN(CCN(C)C)C(=O)CNCc1cc(C(=O)OC(C)CCNC(=O)C(F)(F)F)ccn1` (stereo not drawn) [#63, 4-(trifluoroacetamido)butan-2-yl 2-{[({[2-(dimethylamino)ethyl](ethyl)carbamoyl}methyl)amino]methyl}pyridine-4-carboxylate], the IC50 against GASC1 (KDM4C, JMJD2C) fell in the range of 100 to 1000 nM; against PLU1 (KDM5B), 100 to 1000 nM.

On to `CCN(CCN(C)C)C(=O)CNCc1cc(C(=O)OC(CNC(=O)C(F)(F)F)CC(=O)OC(C)C)ccn1` (stereo not drawn) [#73, propan-2-yl 3-(2-{[({[2-(dimethylamino)ethyl](ethyl)carbamoyl}methyl)amino]methyl}pyridine-4-carbonyloxy)-4-(trifluoroacetamido)butanoate], for which the IC50 fell in the range of 100 to 1000 nM at GASC1 (KDM4C, JMJD2C) and 100 to 1000 nM at PLU1 (KDM5B).

For the compound `CCN(CCN(C)C)C(=O)CNCc1cc(C(=O)OC(CCNC(=O)C(F)(F)F)CC(=O)OC(C)C)ccn1` (stereo not drawn) [#74, propan-2-yl 3-(2-{[({[2-(dimethylamino)ethyl](ethyl)carbamoyl}methyl)amino]methyl}pyridine-4-carbonyloxy)-5-(trifluoroacetamido)pentanoate], the IC50 at GASC1 (KDM4C, JMJD2C) was 100 to 1000 nM; on PLU1 (KDM5B), below 100 nM.

In the case of `CCN(CCN(C)C)C(=O)CNCc1cc(C(=O)Nc2ccncc2)ccn1` [#75, 2-{[({[2-(dimethylamino)ethyl](ethyl)carbamoyl}methyl)amino]methyl}-N-(pyridin-4-yl)pyridine-4-carboxamide], the half-inhibitory concentration (IC50) against GASC1 (KDM4C, JMJD2C) is 100 to 1000 nM; on PLU1 (KDM5B), below 100 nM.

Consider `CCN(CCN(C)C)C(=O)CNCc1cc(C(=O)Nc2nnc(C)o2)ccn1` [#76, 2-{[({[2-(dimethylamino)ethyl](ethyl)carbamoyl}methyl)amino]methyl}-N-(5-methyl-1,3,4-oxadiazol-2-yl)pyridine-4-carboxamide], for which the IC50 is below 100 nM at GASC1 (KDM4C, JMJD2C) and below 100 nM at PLU1 (KDM5B).

As to `CCN(CCN(C)C)C(=O)CNCc1cc(C(=O)Nc2ccnn2C)ccn1` [#77, 2-{[({[2-(dimethylamino)ethyl](ethyl)carbamoyl}methyl)amino]methyl}-N-(1-methyl-1H-pyrazol-5-yl)pyridine-4-carboxamide], the IC50 against GASC1 (KDM4C, JMJD2C) is below 100 nM; against PLU1 (KDM5B) it was below 100 nM.

`O=C(O)c1ccnc(CN2CCCCC2)c1` [#78, 2-(piperidin-1-ylmethyl)pyridine-4-carboxylic acid]: the IC50 was at least 1000 nM at GASC1 (KDM4C, JMJD2C) and at least 1000 nM against PLU1 (KDM5B).

On to `CCN(CCN(C)C)C(=O)CNCc1cc(C(=O)Nc2ncco2)ccn1` [#84, 2-{[({[2-(dimethylamino)ethyl](ethyl)carbamoyl}methyl)amino]methyl}-N-(1,3-oxazol-2-yl)pyridine-4-carboxamide], for which the IC50 was below 100 nM against GASC1 (KDM4C, JMJD2C) and below 100 nM on PLU1 (KDM5B).

In the case of `CCN(CCN(C)C)C(=O)CNCc1cc(C(=O)Oc2c(OC(C)C)cccc2OC(C)C)ccn1` [#85, 2,6-bis(propan-2-yloxy)phenyl 2-{[({[2-(dimethylamino)ethyl](ethyl)carbamoyl}methyl)amino]methyl}pyridine-4-carboxylate], the IC50 fell in the range of 100 to 1000 nM against GASC1 (KDM4C, JMJD2C) and 100 to 1000 nM at PLU1 (KDM5B).

Regarding `CC(C)C[C@@H](C(=O)N1CCCCC1)N(C)Cc1cc(C(=O)O)ccn1` [#93, 2-({methyl[(2S)-4-methyl-1-oxo-1-(piperidin-1-yl)pentan-2-yl]amino}methyl)pyridine-4-carboxylic acid], the IC50 against GASC1 (KDM4C, JMJD2C) was at least 1000 nM; against PLU1 (KDM5B), at least 1000 nM.

Broadly, the IC50 is the concentration that gives 50% inhibition. Read a low IC50 as greater potency.
